Laboratory results reported in US10689378B2, “Triazolopyridine compounds and uses thereof” (Novartis AG, priority 2016, dated 2020).
Where two headings read alike, the source gives them in different places.

Assays:
EED (1-441)-His protein = target: T1, EED (1-441)-His protein (Homo sapiens, UniProt O75530); experiment: EED-H3K27Me3 peptide competition binding assay by AlphaScreen
T1 construct: 30 nM EED (1-441)-His protein
Method in brief: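 Serially diluted compound (12 points, 3-fold) incubated 20 min with 30 nM EED(1-441)-His and 15 nM biotin-H3K27Me3(19-33) peptide in 25 mM HEPES pH 8, 0.02% Tween-20, 0.5% BSA. Ni-chelate acceptor/streptavidin donor beads (10 μg/mL each) added, 1 h rt dark; 615 nm emission normalized to controls, dose-response fit for IC50.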

[1] = target: wild type PRC2 (wtPRC2) complex (Homo sapiens, UniProt O75530); experiment: EED LC-MS assay (SAH production by PRC2); type: biochemical
Chain of wild type PRC2 (wtPRC2) complex (O75530 whole entry): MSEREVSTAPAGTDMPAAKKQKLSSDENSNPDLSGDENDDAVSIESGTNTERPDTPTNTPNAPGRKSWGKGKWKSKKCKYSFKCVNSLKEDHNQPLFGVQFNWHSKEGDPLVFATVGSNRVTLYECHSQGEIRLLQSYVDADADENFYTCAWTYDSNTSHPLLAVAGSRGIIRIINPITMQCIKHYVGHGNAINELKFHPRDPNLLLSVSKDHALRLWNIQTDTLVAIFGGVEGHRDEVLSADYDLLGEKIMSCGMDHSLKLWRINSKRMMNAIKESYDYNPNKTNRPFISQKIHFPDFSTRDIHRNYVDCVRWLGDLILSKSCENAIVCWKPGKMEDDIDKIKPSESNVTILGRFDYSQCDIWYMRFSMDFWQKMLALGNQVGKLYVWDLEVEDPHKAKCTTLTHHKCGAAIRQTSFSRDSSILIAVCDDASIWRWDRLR
Chain of wild type PRC2 (wtPRC2) complex (Q15910 whole entry partner): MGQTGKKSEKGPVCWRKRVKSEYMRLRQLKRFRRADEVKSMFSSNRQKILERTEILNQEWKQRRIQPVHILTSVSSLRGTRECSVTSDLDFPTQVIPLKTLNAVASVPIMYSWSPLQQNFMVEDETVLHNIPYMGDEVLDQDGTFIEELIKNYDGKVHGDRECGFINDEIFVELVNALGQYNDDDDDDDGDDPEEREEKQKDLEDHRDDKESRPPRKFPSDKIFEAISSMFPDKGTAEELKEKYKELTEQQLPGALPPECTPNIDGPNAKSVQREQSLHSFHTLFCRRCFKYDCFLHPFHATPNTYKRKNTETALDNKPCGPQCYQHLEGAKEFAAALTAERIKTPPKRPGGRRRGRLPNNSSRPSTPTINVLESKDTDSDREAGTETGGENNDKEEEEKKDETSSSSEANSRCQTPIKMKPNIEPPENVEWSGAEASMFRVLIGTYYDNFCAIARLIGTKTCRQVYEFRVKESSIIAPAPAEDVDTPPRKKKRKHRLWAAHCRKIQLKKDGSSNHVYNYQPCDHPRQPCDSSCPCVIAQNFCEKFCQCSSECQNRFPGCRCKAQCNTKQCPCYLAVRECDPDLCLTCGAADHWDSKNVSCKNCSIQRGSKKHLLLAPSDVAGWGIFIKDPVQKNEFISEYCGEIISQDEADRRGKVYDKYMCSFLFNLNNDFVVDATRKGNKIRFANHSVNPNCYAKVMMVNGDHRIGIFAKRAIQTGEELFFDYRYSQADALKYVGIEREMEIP
Chain of wild type PRC2 (wtPRC2) complex (Q15022 whole entry partner): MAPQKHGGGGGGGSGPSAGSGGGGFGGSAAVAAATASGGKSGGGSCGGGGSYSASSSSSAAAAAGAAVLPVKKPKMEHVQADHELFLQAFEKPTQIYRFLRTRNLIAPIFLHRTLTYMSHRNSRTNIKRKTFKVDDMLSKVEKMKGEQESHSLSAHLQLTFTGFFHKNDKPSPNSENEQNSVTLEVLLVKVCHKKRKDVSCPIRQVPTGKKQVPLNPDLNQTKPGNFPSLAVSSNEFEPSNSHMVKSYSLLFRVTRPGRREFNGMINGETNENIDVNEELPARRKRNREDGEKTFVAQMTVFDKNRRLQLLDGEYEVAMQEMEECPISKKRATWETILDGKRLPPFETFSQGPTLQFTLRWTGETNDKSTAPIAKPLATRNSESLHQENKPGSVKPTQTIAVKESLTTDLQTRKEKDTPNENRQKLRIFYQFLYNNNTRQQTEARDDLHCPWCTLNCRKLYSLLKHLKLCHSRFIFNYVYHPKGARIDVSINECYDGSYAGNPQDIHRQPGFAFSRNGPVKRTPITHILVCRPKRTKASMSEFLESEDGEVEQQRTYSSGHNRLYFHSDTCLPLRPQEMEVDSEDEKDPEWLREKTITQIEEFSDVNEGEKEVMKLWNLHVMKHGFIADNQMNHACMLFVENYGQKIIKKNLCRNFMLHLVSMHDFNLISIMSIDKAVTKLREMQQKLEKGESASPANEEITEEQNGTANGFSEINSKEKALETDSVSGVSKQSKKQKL
Chain of wild type PRC2 (wtPRC2) complex (Q09028 whole entry partner): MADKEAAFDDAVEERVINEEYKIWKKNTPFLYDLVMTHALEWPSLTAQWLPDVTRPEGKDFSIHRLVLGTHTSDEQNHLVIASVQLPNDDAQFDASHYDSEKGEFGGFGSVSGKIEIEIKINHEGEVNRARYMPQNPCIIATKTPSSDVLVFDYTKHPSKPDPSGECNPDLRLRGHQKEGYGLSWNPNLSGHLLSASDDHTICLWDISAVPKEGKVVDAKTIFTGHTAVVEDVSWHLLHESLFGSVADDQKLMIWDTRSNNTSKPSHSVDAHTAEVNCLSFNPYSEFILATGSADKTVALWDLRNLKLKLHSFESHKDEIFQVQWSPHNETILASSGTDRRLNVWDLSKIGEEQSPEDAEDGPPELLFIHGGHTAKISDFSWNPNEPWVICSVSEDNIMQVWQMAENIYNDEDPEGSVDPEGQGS
Chain of wild type PRC2 (wtPRC2) complex (Q6ZN18 whole entry partner): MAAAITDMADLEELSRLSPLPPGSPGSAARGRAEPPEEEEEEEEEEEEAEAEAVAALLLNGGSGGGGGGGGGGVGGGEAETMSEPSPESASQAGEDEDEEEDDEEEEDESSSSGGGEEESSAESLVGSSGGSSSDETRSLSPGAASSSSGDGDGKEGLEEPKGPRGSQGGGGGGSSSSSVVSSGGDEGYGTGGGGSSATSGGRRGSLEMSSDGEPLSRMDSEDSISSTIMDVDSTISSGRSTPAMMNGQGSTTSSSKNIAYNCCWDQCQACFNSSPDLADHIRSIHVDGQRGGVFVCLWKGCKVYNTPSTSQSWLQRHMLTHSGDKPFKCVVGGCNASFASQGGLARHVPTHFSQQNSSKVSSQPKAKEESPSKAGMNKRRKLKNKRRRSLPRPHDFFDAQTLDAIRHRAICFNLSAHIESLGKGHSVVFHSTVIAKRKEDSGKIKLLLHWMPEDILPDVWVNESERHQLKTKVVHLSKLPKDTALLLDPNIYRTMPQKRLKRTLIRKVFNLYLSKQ
Method in brief: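 Pentameric PRC2 (EZH2, SUZ12, EED, Rbap48, AEBP), 12 nM final, preincubated 20 min with compound and SAM, then 1.5 μM biotinylated H3K27me0 peptide, 1 μM SAM, pH 8.0, 120 min at rt. SAH quantified by LC-MS/MS with d4-SAH; control-normalized activity fitted for IC50.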

[2] = test system: H3K27 methylation in G401 cell; experiment: ELISA (H3K27 methylation) assay in G401 cells; type: cell-based, human; details: Homo sapiens
Method in brief: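 G401 cells treated 48 h with 3-fold dilutions (8 or 12 points, top 20 μM). Acid-extracted histones probed by ELISA for H3K27me3 or H3K27me2 with ECL readout, normalized to total H3. Percent inhibition versus DMSO fitted to dose-response curve for IC50.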

[3] = read-out: (a) IC50, EED Alphascreen binding Qualified
[4] = read-out: (b) IC50, EED LC-MS Qualified
[5] = G-401, read-out: (c) IC50, ELISA Qualified
[6] = EED-H3K27Me3 peptide competition, AlphaScreen, read-out: (a) IC50 EED Alphascreen binding Qualified
[7] = PRC2 LC-MS assay, read-out: (b) IC50 EED LC-MS Qualified
[8] = G-401, H3K27 methylation ELISA, read-out: (c) IC50 ELISA Qualified
[9] = read-out: (a) IC50 EED Alphascreen binding Qualified
[10] = read-out: (b) IC50 EED LC-MS Qualified
[11] = G-401, read-out: (c) IC50 ELISA Qualified

T1 sequence (O75530 whole entry): as the sequence (O75530 whole entry) above

## COc1ccccc1CNc1ccc(-c2ccc(CN(C)C)cc2F)c2nncn12 [Example 70, 8-(4-((dimethylamino)methyl)-2-fluorophenyl)-N-(2-methoxybenzyl)-[1,2,4] triazolo[4,3-a]pyridin-5-amine]
EED (1-441)-His protein; [3]
  IC50: 37.6 nM
[1]; [4]
  IC50: 188 nM
[2]; [5]
  IC50: 334 nM

## CCn1nccc1-c1ccc(NCc2c(F)cccc2OC)n2cnnc12 [Example 233, 8-(1-ethyl-1H-pyrazol-5-yl)-N-(2-fluoro-6-methoxybenzyl)-[1,2,4]triazolo[4,3-a] pyridin-5-amine]
EED (1-441)-His protein; [6]
  IC50: 14 nM
[1]; [7]
  IC50: 47.8 nM
[2]; [8]
  IC50: 15.3 nM

## COc1cccc(F)c1CNc1ccc(-n2ccc(C)n2)c2nncn12 [Example 359, N-(2-fluoro-6-methoxybenzyl)-8-(3-methyl-1H-pyrazol-1-yl)-[1,2,4]triazolo [4,3-a]pyridin-5-amine]
EED (1-441)-His protein; [9]
  IC50: 42.9 nM
[1]; [10]
  IC50: 274 nM
[2]; [11]
  IC50: 55.1 nM

## COc1cccc(F)c1CNc1ccc(-c2ccc(N3CCCC3=O)nc2)c2nncn12 [Example 215, 1-(5-(5-((2-fluoro-6-methoxybenzyl)amino)-[1,2,4]triazolo[4,3-a]pyridin-8-yl)pyridin-2-yl)pyrrolidin-2-one]
EED (1-441)-His protein; [6]
  IC50: 20 nM
[1]; [7]
  IC50: 150 nM
[2]; [8]
  IC50: 55 nM

## COc1cccc(F)c1CNc1ccc(-c2ccc(C(C)C)nc2C)c2nncn12 [Example 351, N-(2-fluoro-6-methoxybenzyl)-8-(6-isopropyl-2-methylpyridin-3-yl)-[1,2,4]triazolo[4,3-a]pyridin-5-amine]
EED (1-441)-His protein; [9]
  IC50: 23.4 nM
[1]; [10]
  IC50: 22.9 nM
[2]; [11]
  IC50: 15.5 nM

## CNC(=O)c1cncc(-c2ccc(NCc3c(F)cccc3OC)n3cnnc23)c1 [Example 182, 5-(5-((2-fluoro-6-methoxybenzyl)amino)-[1,2,4]triazolo[4,3-a]pyridin-8-yl)-N-methylnicotinamide]
EED (1-441)-His protein; [6]
  IC50: 20.4 nM
[1]; [7]
  IC50: 520 nM
[2]; [8]
  IC50: 16.5 nM

## COc1cccc(F)c1CNc1ccc(-c2cnc(C)cc2C(F)F)c2nncn12 [Example 316, 8-(4-(difluoromethyl)-6-methylpyridin-3-yl)-N-(2-fluoro-6-methoxybenzyl)-[1,2,4]triazolo[4,3-a]pyridin-5-amine]
EED (1-441)-His protein; [6]
  IC50: 15.7 nM
[1]; [7]
  IC50: 215 nM
[2]; [8]
  IC50: 17.3 nM

## CCS(=O)(=O)c1ccc(-c2ccc(NCc3ccccc3OC)n3cnnc23)cc1 [Example 56, 8-(4-(ethylsulfonyl)phenyl)-N-(2-methoxybenzyl)-[1,2,4]triazolo[4,3-a]pyridin-5-amine]
EED (1-441)-His protein; [3]
  IC50: 33 nM
[1]; [4]
  IC50: 130 nM
[2]; [5]
  IC50: 88.5 nM

## COc1c(F)ccc(F)c1CNc1ccc(-c2ccc(S(C)(=O)=O)nc2C)c2nncn12 [Example 334, N-(3,6-difluoro-2-methoxybenzyl)-8-(2-methyl-6-(methylsulfonyl)pyridin-3-yl)-[1,2,4]triazolo[4,3-a] pyridin-5-amine]
EED (1-441)-His protein; [6]
  IC50: 38 nM
[1]; [7]
  IC50: 144 nM
[2]; [8]
  IC50: 31.6 nM

## COc1c(F)ccc(F)c1CNc1ccc(-c2cccnc2C)c2nncn12 [Example 327, N-(3,6-difluoro-2-methoxybenzyl)-8-(2-methylpyridin-3-yl)-[1,2,4]triazolo[4,3-a] pyridin-5-amine]
EED (1-441)-His protein; [6]
  IC50: 48.3 nM
[1]; [7]
  IC50: 172 nM
[2]; [8]
  IC50: 51.9 nM

## COc1cccc(F)c1CNc1ccc(-c2ccncc2)c2nncn12 [Example 113, N-(2-fluoro-6-methoxybenzyl)-8-(pyridin-4-yl)-[1,2,4]triazolo[4,3-a]pyridin-5-amine]
EED (1-441)-His protein; [3]
  IC50: 38.7 nM
[1]; [4]
  IC50: 117 nM
[2]; [5]
  IC50: 27.4 nM

## CCN1CCN(c2ccc(-c3ccc(NCc4ccccc4OC)n4cnnc34)cn2)CC1 [Example 69, 8-(6-(4-ethylpiperazin-1-yl)pyridin-3-yl)-N-(2-methoxybenzyl)-[1,2,4]triazolo[4,3-a] pyridin-5-amine]
EED (1-441)-His protein; [3]
  IC50: 28.2 nM
[1]; [4]
  IC50: 304 nM
[2]; [5]
  IC50: 73.7 nM

## COc1cccc(F)c1CNc1ccc(-c2c(C)cnn2C)c2nncn12 [Example 370, 8-(1,4-dimethyl-1H-pyrazol-5-yl)-N-(2-fluoro-6-methoxybenzyl)-[1,2,4]triazolo[4,3-a] pyridin-5-amine]
EED (1-441)-His protein; [9]
  IC50: 25.8 nM
[1]; [10]
  IC50: 108 nM
[2]; [11]
  IC50: 20 nM

## COc1cccc(F)c1CNc1ccc(-c2cn(C)nc2C)c2nncn12 [Example 186, 8-(1,3-dimethyl-1H-pyrazol-4-yl)-N-(2-fluoro-6-methoxybenzyl)-[1,2,4]triazolo[4,3-a] pyridin-5-amine]
EED (1-441)-His protein; [6]
  IC50: 65.9 nM
[1]; [7]
  IC50: 14 nM
[2]; [8]
  IC50: 40.9 nM

## COc1cccc(F)c1CNc1ccc(-n2ccnn2)c2nncn12 [Example 361, N-(2-fluoro-6-methoxybenzyl)-8-(1H-1,2,3-triazol-1-yl)-[1,2,4]triazolo[4,3-a] pyridin-5-amine]
EED (1-441)-His protein; [9]
  IC50: 15.1 nM
[1]; [10]
  IC50: 69.6 nM
[2]; [11]
  IC50: 21.1 nM

## COc1ccccc1CNc1ccc(-c2ccc(N3CCN(C(C)C)CC3)cc2)c2nncn12 [Example 77, 8-(4-(4-isopropylpiperazin-1-yl)phenyl)-N-(2-methoxybenzyl)-[1,2,4]triazolo[4,3-a] pyridin-5-amine]
EED (1-441)-His protein; [3]
  IC50: 14.6 nM
[1]; [4]
  IC50: 106 nM
[2]; [5]
  IC50: 21.7 nM

## COc1cc(F)cc(F)c1CNc1ccc(-c2cnc(C)cc2C)c2nncn12 [Example 329, N-(2,4-difluoro-6-methoxybenzyl)-8-(4,6-dimethylpyridin-3-yl)-[1,2,4]triazolo [4,3-a]pyridin-5-amine]
EED (1-441)-His protein; [6]
  IC50: 31.1 nM
[1]; [7]
  IC50: 1360 nM
[2]; [8]
  IC50: 48 nM

## CCc1ncccc1-c1ccc(NCc2c(F)cc(F)cc2OC)n2cnnc12 [Example 298, N-(2,4-difluoro-6-methoxybenzyl)-8-(2-ethylpyridin-3-yl)-[1,2,4]triazolo[4,3-a] pyridin-5-amine]
EED (1-441)-His protein; [6]
  IC50: 67.9 nM
[1]; [7]
  IC50: 362 nM
[2]; [8]
  IC50: 86.9 nM

## COc1ccccc1CNc1ccc(-c2ccc(S(=O)(=O)C(C)C)nc2)c2nncn12 [Example 127, 8-(6-(isopropylsulfonyl)pyridin-3-yl)-N-(2-methoxybenzyl)-[1,2,4]triazolo[4,3-a] pyridin-5-amine]
EED (1-441)-His protein; [3]
  IC50: 21.7 nM
[1]; [4]
  IC50: 572 nM
[2]; [5]
  IC50: 14.2 nM

## COc1cccc(F)c1CNc1ccc(-c2ccc(NS(C)(=O)=O)cc2)c2nncn12 [Example 105, N-(4-(5-((2-fluoro-6-methoxybenzyl)amino)-[1,2,4]triazolo[4,3-a]pyridin-8-yl)phenyl)methane sulfonamide]
EED (1-441)-His protein; [3]
  IC50: 21.5 nM
[1]; [4]
  IC50: 281 nM
[2]; [5]
  IC50: 43.3 nM

## COc1cccc(F)c1CNc1ccc(-c2c(C)nn(C3CC3)c2C)c2nncn12 [Example 275, 8-(1-cyclopropyl-3,5-dimethyl-1H-pyrazol-4-yl)-N-(2-fluoro-6-methoxybenzyl)-[1,2,4]triazolo[4,3-a] pyridin-5-amine]
EED (1-441)-His protein; [6]
  IC50: 23.3 nM
[1]; [7]
  IC50: 71.8 nM
[2]; [8]
  IC50: 21.6 nM

## COc1cccc(F)c1CNc1ccc(-c2ccccc2CO)c2nncn12 [Example 238, (2-(5-((2-fluoro-6-methoxy benzyl)amino)-[1,2,4]triazolo[4,3-a]pyridin-8-yl)phenyl)methanol]
EED (1-441)-His protein; [6]
  IC50: 74.5 nM
[1]; [7]
  IC50: 153 nM
[2]; [8]
  IC50: 85.3 nM

## COc1cccc(F)c1CNc1ccc(-c2nc(C)nn2C)c2nncn12 [Example 355, 8-(1,3-dimethyl-1H-1,2,4-triazol-5-yl)-N-(2-fluoro-6-methoxybenzyl)-[1,2,4] triazolo[4,3-a]pyridin-5-amine]
EED (1-441)-His protein; [9]
  IC50: 15.8 nM
[1]; [10]
  IC50: 30.5 nM
[2]; [11]
  IC50: 11.7 nM

## COc1cccc(F)c1CNc1ccc(-c2ccc(N(C)S(C)(=O)=O)nc2)c2nncn12 [Example 163, N-(5-(5-((2-fluoro-6-methoxybenzyl)amino)-[1,2,4]triazolo[4,3-a]pyridin-8-yl)pyridin-2-yl)-N-methylmethanesulfonamide]
EED (1-441)-His protein; [3]
  IC50: 16.6 nM
[1]; [4]
  IC50: 50.5 nM
[2]; [5]
  IC50: 10.7 nM

## COc1cccc(F)c1CNc1ccc(-c2ccc(F)nc2C)c2nncn12 [Example 222, 8-(6-fluoro-2-methylpyridin-3-yl)-N-(2-fluoro-6-methoxybenzyl)-[1,2,4]triazolo[4,3-a] pyridin-5-amine]
EED (1-441)-His protein; [6]
  IC50: 9.9 nM
[1]; [7]
  IC50: 122 nM
[2]; [8]
  IC50: 9.9 nM

## COc1cccc(F)c1CNc1ccc(-c2cncc(N3CCCC3=O)c2)c2nncn12 [Example 167, 1-(5-(5-((2-fluoro-6-methoxybenzyl)amino)-[1,2,4]triazolo[4,3-a]pyridin-8-yl)pyridin-3-yl)pyrrolidin-2-one]
EED (1-441)-His protein; [3]
  IC50: 13.4 nM
[1]; [4]
  IC50: 679 nM
[2]; [5]
  IC50: 10.3 nM

## COc1cccc(F)c1CNc1ccc(-c2cnc(CC(C)C)nc2C)c2nncn12 [Example 4, N-(2-Fluoro-6-methoxybenzyl)-8-(2-isobutyl-4-methylpyrimidin-5-yl)-[1,2,4]triazolo[4,3a]-pyridin-5-amine]
EED (1-441)-His protein; [3]
  IC50: 8.6 nM
[1]; [4]
  IC50: 6.6 nM
[2]; [5]
  IC50: 5.7 nM
